Series [1] can be described thus: Single dose pharmacokinetics (PK) study in male Wister-Han rats. The format is in vivo, rat. The conditions noted are these: for F: dose normalized AUC0-last PO 10 mg/kg vs IV 2 mg/kg; for AUC(0-t) / Cmax / clearance / half-life / Vd: rat, plasma; for Vd: read-out: Vss. As to the method:
Pharmacokinetic properties of selected compounds were assessed by single dose PK studies in Male Wister-Han Rats (vendor: Beijing Vital River Laboratory Animal Technology Co., Ltd). Briefly, two groups of animals were administered a single dose of respective compound intravenously (IV, bolus) at 2 mg/kg or orally (PO, by gavage) at 10 mg/kg. Blood samples (approximately 150 μL) were collected via Jugular vein at 5 min (only for IV), 15 min, 30 min, 1 h, 2 h, 4 h, 7 h and 24 h post-dose. Blood samples were placed into tubes containing EDTA-K2 anticoagulant and centrifuged at 3000 rpm for 15 min at 4° C. to separate plasma from the samples. After centrifugation, the resulting plasma was transferred to clean tubes for bioanalysis with LC/MS/MS. The pharmacokinetic parameters were calculated using non-compartmental analysis. The volume of distribution (Vss), half-life (T1/2) and clearance (CL) were obtained based on the plasma concentration-time curve after IV dose. The peak concentration (Cmax) was recorded directly from experimental observations after PO dose. The area under the plasma concentration-time curve (AUC0-last) was calculated using the linear trapezoidal rule up to the last detectable concentration. The bioavailability (F) was calculated based on the dose normalized AUC0-last after IV and PO dose.
The Vss of a drug represents the degree to which a drug is distributed in body tissue rather than the plasma. Vss is directly proportional with the amount of drug distributed into tissue. A higher Vss indicates a greater amount of tissue distribution.

Series [2] has as its system Balb/c 3T3 mouse fibroblasts. In words: 3T3 in vitro phototoxicity assay (Neutral Red uptake). The format is cell-based. The conditions noted are these: for Phototoxicity factor: IC50 without vs with UV-A exposure, cut-off factor >5; for IC50: Mus musculus, BALB/c3T3, light or radiation study, 3T3 fibroblasts, approx. 5 J/cm^2 UVA, Neutral Red uptake. From the text:
Phototoxicity is defined as a toxic response that is elicited after the first exposure of the skin to certain chemicals and subsequent exposure to light, or that is induced similarly by skin irradiation after systemic administration of a chemical substance. The assay used in this study is designed to detect the phototoxic potential of a chemical by using a simple in vitro cytotoxicity assay with Balb/c 3T3 mouse fibroblasts. The principle of this test is a comparison of the cytotoxicity of a chemical when tested with and without exposure to a non-toxic dose of UVA-light. Cytotoxicity is expressed as a dose dependent reduction of the growth rate of cells as determined by uptake of the vital dye Neutral Red one day after treatment.
A small amount of substance was weighed and formulated freshly in DMSO just before the start of the exposure of the cells. This stock solution or appropriate dilutions with DMSO were added to the cell suspensions to obtain the required final concentrations. All solutions were generally prepared in Eppendorf caps and discarded after use.
• Chlorpromazine (HCL) (Sigma, Batch/Lot No.: 120M1328V), test concentration: 300 μg/mL, Solvent: PBS/3% DMSO
For this study the Neutral Red uptake (NRU) assay of Borenfreund and Puerner (Borenfreund, E, Puerner J A. Toxicity determined in vitro by morphological alterations and Neutral Red absorption. Toxicology Lett. 1985; 24:119-124) modified according to INVITTOX protocol No 78 (ERGATT/FRAME data bank of in vitro techniques in toxicology. INVITTOX PROTOCOL No 78. 3T3 NRU Phototoxicity Assay. March 1994) has been adapted to examine a possible phototoxic potential of the test item. This assay is based on the active uptake of the Neutral Red dye into the lysosomes of cultured murine fibroblasts. Because lysosomal membranes are known to be a site of action of many phototoxic compounds, this assay can provide a measure of potential for phototoxic injury.
A murine fibroblasts clone A 31 (ATCC no. CCL 163—passage No. 108) were cultured in 175 cm^2 tissue culture grade flasks, containing sDMEM (Dulbecco's […] Essential Medium, supplemented with 10% fetal calf serum, 2 mM L-glutamine, 100 units/ml Penicillin and 100 μg/ml streptomycin) at 37° C. in a humidified atmosphere of 6% CO2. Before cells approach confluence they were removed from flasks by trypsinisation. Prior to use in an assay, the cells were transferred to 96-well microtiter plates at a concentration of 1×10^4 cells/well in 100 μl volumes of sDMEM and allowed to attach for 24 h.
For incubation with murine fibroblasts, the test item was diluted in PBS/3% DMSO (detailed concentrations see in results).
Culture medium (Dulbecco's Modified Eagle Medium(DMEM), GlutaMAX (Gibco Ref 21885-025), 10% Fetal Bovine Serum (FBS) (Gibco Ref 10270-106), 1001U/ml Penicillin and 100 μg/mL Streptomycin (Gibco Ref 15140-122)) was removed from the wells and murine fibroblasts were washed with PBS. Afterwards 100 μL of PBS/3% DMSO containing the test item was added and target cells were incubated for 1 h at 37° C. with 6% CO2.
For each test item the microtiter plates were prepared according to Table 6. “UVA plates” were exposed to approx. 5 J/cm^2 UVA light, the “Dark plates” were kept in the dark and served as cytotoxicity control. Plates with chlorpromazine hydrochloride served as positive control. UV flux was measured with a UV-meter (Dr. Gröbel RM21).
Following UV irradiation, the test item was removed from the wells (one washing step with PBS) and replaced with sDMEM. Target cells were then incubated overnight at 37° C. in 6% CO2.
Each plate contained wells with cells and solvent but without test item which were either not incubated with Neutral Red solution (0% standard—S1) or were stained with Neutral Red (100% standard—S2) for calculation of the standard cell viability curve. Wells labeled with U01-U08 contained the different test item concentrations. […]

[3] abbreviates: IV 2 mg/kg, read-out: IV AUC0-last.
Where [4] appears, read: PO 10 mg/kg, read-out: PO AUC0-last.

Where two headings read alike, the source gives them in different places. Bounds are passed on as bounds.

Consider `C[C@H]1CN(c2ccnc3c2cnn3C)Cc2ccc(N3CCNCC3)cc21` [Example 1, (4R)-4-methyl-2-(1-methylpyrazolo[3,4-b]pyridin-4-yl)-6-piperazin-1-yl-3,4-dihydro-1H-isoquinoline], for which the F in series [1] is reported as 113%. Also, the AUC(0-t) in series [1] (setting [3]) stood at 1290 ng·h/mL. Further, the Cmax (commonly the peak of the concentration-time curve) in series [1] (PO 10 mg/kg) is 474 ng/mL. Besides, the AUC(0-t) in series [1] (setting [4]) was determined as 7270 ng·h/mL. Also, in series [1] (IV 2 mg/kg), the clearance – broadly, the volume of plasma or blood freed of the substance per unit of time – came out at 24 mL/min/kg; the half-life (commonly the time in which the quantity being followed falls by half) is 6.9 h; the Vd was found to be 11.2 L/kg.

Consider `Cn1ncc2c(N3CCc4cc(N5CCNCC5)ccc4C3)ccnc21` [Example 3, 2-(1-methylpyrazolo[3,4-b]pyridin-4-yl)-6-piperazin-1-yl-3,4-dihydro-1H-isoquinoline], for which, in series [2], the Phototoxicity factor turned out to be 1 and the IC50 – broadly, the concentration that inhibits the measured activity by half – is over 100 µg/mL.

Compound `C[C@H]1CN(c2ccnc3c2cnn3C)Cc2ccc(OC[C@@H]3CNCCN3)cc21` [Example 19, (4R)-4-methyl-2-(1-methylpyrazolo[3,4-b]pyridin-4-yl)-6-[[(2S)-piperazin-2-yl]methoxy]-3,4-dihydro-1H-isoquinoline] yielded a F in series [1] of 32%. Further, the AUC(0-t) in series [1] (setting [3]) is 887 ng·h/mL. In addition, in series [1] (PO 10 mg/kg), the concentration peaked (Cmax) at 102 ng/mL. Moreover, the AUC(0-t) in series [1] (setting [4]) was found to be 1410 ng·h/mL. In series [1] (IV 2 mg/kg), the clearance was 34 mL/min/kg, the half-life is 8.9 h and the Vd worked out at 16 L/kg.

Turning to `CO[C@@H]1CN(c2ccc3c(c2)[C@@H](C)CN(c2ccnc4c2cnn4C)C3)C[C@H]1N` [Example 20, (3R,4R)-4-methoxy-1-[(4R)-4-methyl-2-(1-methylpyrazolo[3,4-b]pyridin-4-yl)-3,4-dihydro-1H-isoquinolin-6-yl]pyrrolidin-3-amine], in series [2], the Phototoxicity factor amounted to 1 and the half-inhibitory concentration (IC50) was over 100 µg/mL. In series [1], this compound showed an F of 60%. Further, in series [1] (setting [3]), the AUC(0-t) is 5480 ng·h/mL. In series [1] (PO 10 mg/kg), this compound had a Cmax of 1140 ng/mL. For the same compound, the AUC(0-t) in series [1] (setting [4]) worked out at 16500 ng·h/mL. Also, in series [1] (IV 2 mg/kg), the clearance is 6 mL/min/kg, the half-life is 3.3 h and the Vd is 1.5 L/kg.

In the case of `CO[C@@H]1CN(c2ccc3c(c2)[C@@H](C)CN(c2cc(C)nc4c2cnn4C)C3)C[C@H]1N` [Example 23, (3R,4R)-4-methoxy-1-[(4R)-2-(1,6-dimethylpyrazolo[3,4-b]pyridin-4-yl)-4-methyl-3,4-dihydro-1H-isoquinolin-6-yl]pyrrolidin-3-amine], the F in series [1] came to 73%. In series [1] (setting [3]), the AUC(0-t) stood at 7550 ng·h/mL. The same compound displayed a peak concentration (Cmax) in series [1] (PO 10 mg/kg) of 1600 ng/mL. In addition, in series [1] (setting [4]), the AUC(0-t) was 27500 ng·h/mL. Moreover, in series [1] (IV 2 mg/kg), the clearance was found to be 3.7 mL/min/kg, the half-life is 10.5 h and the Vd was found to be 2.7 L/kg.

Take `CO[C@@H]1CN(c2ccc3c(n2)[C@@H](C)CN(c2cc(C)nc4c2cnn4C)C3)C[C@H]1N` [Example 63, (3R,4R)-4-methoxy-1-[(8S)-6-(1,6-dimethylpyrazolo[3,4-b]pyridin-4-yl)-8-methyl-7,8-dihydro-5H-1,6-naphthyridin-2-yl]pyrrolidin-3-amine]: in series [2], the Phototoxicity factor is listed as 1 and the half-inhibitory concentration (IC50) was over 100 µg/mL. In series [1], this compound had an F of 98%. In series [1] (setting [3]), the AUC(0-t) is 80700 ng·h/mL. The compound further showed a Cmax in series [1] (PO 10 mg/kg) of 22200 ng/mL. The AUC(0-t) in series [1] (setting [4]) was 394000 ng·h/mL. Further, in series [1] (IV 2 mg/kg), the clearance was found to be 0.26 mL/min/kg, the half-life was 18.3 h and the Vd was 0.38 L/kg.
